From US7622500B2, “Antiparasitic agents” (Pfizer Limited, priority 2007, dated 2009)

Test system: Haemonchus contortus L3
Experiment: Haemonchus contortus L3 (HcL3) in vitro test
Type: cell-based
Details: minimum effective dose, exsheathed L3 larvae, 37° C., observed 2 hrs to 4 days, dose responses 100-0.1 μg/ml, n=2, read-out: H.c. (L3) MED
Experimental: The Haemonchus contortus L3 (HcL3) test is used to measure the biological activities of the compounds claimed. The assay involves in vitro testing against H. contortus conducted according to the following general procedure.
HcL3 larvae were collected from infected sheep and, after cleaning, stored in water at 12° C. for up to one month. Viable infective larvae were exsheathed using 10% hypochlorite in Glucose Tyrodes balanced salt solution containing antibiotics and resuspended in basal medium (20 g/l bacto-tryptone, 5 g/l yeast extract, 57 g/l glucose, 0.8 g/l di-Potassium hydrogen orthophosphate, 0.8 g/l potassium dihydrogen orthophosphate and […] Hepes with antibiotics). 95 μl worm suspension was added to each well of a 96 well plate.
Test compounds were dissolved in dimethylsulfoxide to give a working stock solution of 20 mg/ml. The stock concentration was diluted 1:10 in Basal media to give 2.0 mg/ml (10% DMSO). 5 μl of the stock compound solution was added to the worm suspension to give a final concentration of 100 μg/ml. Plates were sealed with pressure sensitive film and incubated at 37° C. Observations were made 2 hrs, 24 hrs, 48 hrs, 72 hrs and 4 days post-treatment using an inverted microscope. Activity was recorded if a significant proportion of the worms were dead or adversely affected by the compound when compared to the control well containing 1% DMSO. Compounds were initially tested at 100 μg/ml, wherefrom relevant dose responses (100, 30, 10, 3, 1, 0.3, 0.1 μg/ml) were conducted in duplicate experiments to generate n=2. Data was recorded as minimum effective dose.

SMILES | minimal effective concentration
CC(C#N)(NC(=O)c1ccc(OC(F)(F)F)cc1)C1Cc2ccccc2O1 (centres unmarked) [Example 3, N-[1-Cyano-1-(2,3-dihydro-1-benzofuran-2-yl)ethyl]-4-(trifluoromethoxy)benzamide] | 30 µg/mL
CC(C#N)(NC(=O)c1ccc(S(F)(F)(F)(F)F)cc1)C1Cc2cc(C#N)cc(Cl)c2O1 (centres unmarked) [Example 9, N-[1-(7-Chloro-5-cyano-2,3-dihydro-1-benzofuran-2-yl)-1-cyanoethyl]-4-(pentafluorothio)benzamide] | < 1 µg/mL
CC(C#N)(NC(=O)c1ccc(OC(F)(F)F)cc1)C1Cc2cc(C#N)ccc2O1 (centres unmarked) [Example 1a, N-[1-Cyano-1-(5-cyano-2,3-dihydro-1-benzofuran-2-yl)ethyl]-4-(trifluoromethoxy)benzamide] | 3 µg/mL
CC(C#N)(NC(=O)c1ccc(SC(F)(F)F)cc1)C1Cc2cc(C#N)ccc2O1 (centres unmarked) [Example 2, N-[1-Cyano-1-(5-cyano-2,3-dihydro-1-benzofuran-2-yl)ethyl]-4-[(trifluoromethyl)thio]benzamide] | 3 µg/mL
CC(C#N)(NC(=O)c1ccc(C(F)(F)F)cc1)C1Cc2cc(Cl)ccc2O1 (centres unmarked) [Example 5, N-[1-(5-Chloro-2,3-dihydro-1-benzofuran-2-yl)-1-cyanoethyl]-4-(trifluoromethyl)benzamide] | 30 µg/mL
CC(C#N)(NC(=O)c1ccc(OC(F)(F)F)cc1)C1Cc2cccc(C#N)c2O1 (centres unmarked) [Example 6, N-[1-Cyano-1-(7-cyano-2,3-dihydro-1-benzofuran-2-yl)ethyl]-4-(trifluoromethoxy)benzamide] | 10 µg/mL
CC(C#N)(NC(=O)c1ccc(SC(F)(F)F)cc1)C1Cc2cccc(C#N)c2O1 (centres unmarked) [Example 7, N-[1-Cyano-1-(7-cyano-2,3-dihydro-1-benzofuran-2-yl)ethyl]-4-[(trifluoromethyl)thio]benzamide] | 10 µg/mL
CC(C#N)(NC(=O)c1ccc(OC(F)(F)F)cc1)C1Cc2cc(C#N)cc(Cl)c2O1 (centres unmarked) [Example 8, N-[1-(7-Chloro-5-cyano-2,3-dihydro-1-benzofuran-2-yl)-1-cyanoethyl]-4-(trifluoromethoxy)benzamide] | < 1 µg/mL
